Results from patent US8969350B2, “Pharmaceutical product comprising a p38 kinase inhibitor and a second active ingredient” (Astrazeneca AB, priority 2008, dated 2015).
Where a name gives a salt, the structure may show the parent alone. Read-outs that look alike come from different tables or passages of the source.

Legend:
[1] = test system: LPS stimulated TNFα production from human PBMC; experiment: Inhibition of LPS-induced TNFα production in human peripheral blood mononuclear cells (FLISA); type: cell-based; details: Compound A alone, n=17, read-out: pIC50 for inhibition of LPS-induced TNFα production from human PBMC (converted)
Protocol: After the pre-incubation period, the cells were then incubated with LPS (1 μg/mL) for 4 hr at 37° C. to induce TNFα production. The total assay volume was 200 μL. At the end of the incubation period, 25 μL of the culture supernatant was analysed to quantify the TNFα released using a Flourescence-linked immunosorbance assay (FLISA). Fluorescence levels were read on an FMAT plate reader. Inhibition curves were fitted using a 4-parameter logistic equation in a non-linear curve fitting routine and activity was expressed as pIC50.

guinea pig trachea [2] = experiment: Guinea-pig isolated tracheal ring, Protocol A: relaxation of methacholine pre-contracted rings; details: mean ± s.e. mean, n=4; for EC50: Cavia porcellus
Protocol: (§1) Guinea-pigs (300-600 g) were killed by cervical dislocation and the trachea removed. After clearing the adherent connective tissue, the trachea was cut into segments (2-3 cartilage rings in width) and suspended in 10 ml organ baths containing modified Krebs' solution (mM; NaCl, 90; NaHCO3, 45; KCl, 5; MgSO4.7H2O, 0.5; Na2HPO4.2H2O, 1; CaCl2, 2.25; glucose, 10; pH 7.4, gassed with 5% CO2, 95% O2 at 37° C.). The tracheal rings were attached to an isometric force transducer for the measurement of isometric tension. The tissues were washed and a force of 1 g was applied to each tissue.
(§2) Protocol A: The rings were pre-contracted with methacholine (1 μM) and a cumulative (0.3 nM-3 μM) isoprenaline concentration effect curve constructed. The rings were washed and either Compound A (4 nM) or vehicle was added. The rings were then contracted with a second concentration of methacholine (1 μM). Once the contraction had reached a plateau cumulative concentration response curves to Compound C (0.1 nM-1 μM), Compound E (1 nM-1 μM) or Compound H (0.1 nM-1 μM) were constructed. Data were collected using the ADInstruments chart4 software, the maximum tension generated at each concentration of agonist was recorded and the response expressed as percentage relaxation (mean±s.e.mean). The data was fitted to a four parameter logistic and a potency value (pEC50) generated (expressed as mean±s.e.mean). Protocol B: A cumulative concentration effect curve to methacholine (3 nM-30 μM) was constructed and then the tissue was washed. […] A second extended cumulative concentration response curve to methacholine was constructed (3 nM-1 mM). Data were collected using the ADInstruments chart4 software, the maximum tension generated at each concentration of agonist was recorded and the results were expressed as percentage of the maximum response measured in the first curve.

guinea pig trachea [3] = experiment: Guinea-pig isolated tracheal ring, Protocol B: shift of methacholine concentration response curve (apparent pA2); details: mean ± s.e. mean, n=4; for pA2 in the presence of Compound A: apparent pA2 vs methacholine in the presence of Compound A (4 nM); for pA2 value: apparent pA2 vs methacholine, compound alone, Schild plot slope of 1 assumed
Protocol: as §1
as §2, with “Once the contraction had reached a plateau cumulative concentration response curves to Compound C (0.1 nM-1 μM), Compound E (1 nM-1 μM) or Compound H (0.1 nM-1 μM) were constructed.” left out

[4] = Water uptake by gravimetric vapour sorption (GVS); type: physicochemical; details: between RH of 0%-80%, as measured by GVS
Protocol: GVS profiles were measured using a Dynamic Vapour Sorption DVS-1 instrument. The solid sample ca. 1-5 mg was placed into a glass vessel and the weight of the sample was recorded during a dual cycle step method (40 to 90 to 0 to 90 to 0% relative humidity (RH), in steps of 10% RH).

[5] = compound alone (vehicle), relaxation of rings contracted with methacholine 1 μM, read-out: pEC50 value (converted)

`CNCCOc1ccccc1C1(Nc2nccn(-c3cc(C(=O)NC4CC4)cc(F)c3C)c2=O)CC1` [Compound A, N-cyclopropyl-3-fluoro-4-methyl-5-[3-[[1-[2-[2-(methylamino)ethoxy]phenyl]cyclopropyl]amino]-2-oxo-pyrazin-1-yl]benzamide] gave an IC50 [1] of 7.94 nM.
`CCN(CC)CCN(CCNCCc1ccc(O)c2[nH]c(=O)sc12)C(=O)CCOCCc1cccc2ccccc12` [Compound C, N-[2-(diethylamino)ethyl]-N-(2-{[2-(4-hydroxy-2-oxo-2,3-dihydro-1,3-benzothiazol-7-yl)ethyl]amino}ethyl)-3-[2-(1-naphthyl)ethoxy]propanamide dihydrobromide] showed an EC50 (guinea pig trachea [2]; [5]) of 10 nM and a pEC50 value (guinea pig trachea [2]; compound alone (vehicle), relaxation of rings contracted with methacholine 1 μM, dihydrobromide) of 8.0 ± 0.05.
In the case of `O=C(O[C@H]1C[N+]2(CCCOc3ccccc3)CCC1CC2)C(O)(c1cccs1)c1cccs1` [Compound D, [(3R)-1-(3-phenoxypropyl)quinuclidin-1-ium-3-yl]2-hydroxy-2,2-bis(2-thienyl)acetate bromide, reference compound], the “pA2 in the presence of Compound A” value (guinea pig trachea [3]) is reported as 10.5±0.07 and the pA2 value (guinea pig trachea [3]) is reported as 10.7±0.09.
In the case of `CCc1cc2c(cc1CC)CC(NC[C@H](O)c1ccc(O)c3[nH]c(=O)ccc13)C2` [Compound E, 5-[(1R)-2-[(5,6-diethylindan-2-yl)amino]-1-hydroxy-ethyl]-8-hydroxy-1H-quinolin-2-one maleate, reference compound], the EC50 (guinea pig trachea [2]; [5]) is reported as 15.8 nM and the EC50 (guinea pig trachea [2]; in the presence of Compound A (4 nM), rings contracted with methacholine 1 μM, read-out: pEC50 in the presence of Compound A (converted)) is reported as 20 nM.
In the case of `O=C(CCNCCc1cccc(F)c1)N(CCNCCc1ccc(O)c2[nH]c(=O)sc12)C1CCCCC1` [Compound H, N-Cyclohexyl-N^3-[2-(3-fluorophenyl)ethyl]-N-(2-{[2-(4-hydroxy-2-oxo-2,3-dihydro-1,3-benzothiazol-7-yl)ethyl]amino}ethyl)-β-alaninamide di-D-mandelate], the EC50 (guinea pig trachea [2]; [5]) is reported as 0.631 nM and the “pEC50 in the presence of Compound A” value (guinea pig trachea [2]; in the presence of Compound A (4 nM), rings contracted with methacholine 1 μM) is reported as 9.2±0.10.
In the case of `C[C@@](C(=O)O[C@H]1C[N+]2(CCc3ccc(F)cc3)CCC1CC2)(c1ccccc1)N1CCCCC1` [Compound J, (R)-1-[2-(4-fluoro-phenyl)-ethyl]-3-((S)-2-phenyl-2-piperidin-1-yl-propionyloxy)-1-azonia-bicyclo[2.2.2]octane 4-methylbenzenesulfonate], the “pA2 in the presence of Compound A” value (guinea pig trachea [3]; 4-methylbenzenesulfonate) is reported as 10.1±0.10 and the pA2 value (guinea pig trachea [3]; 4-methylbenzenesulfonate) is reported as 9.9±0.12.
In the case of `O=C(C[N+]12CCC(CC1)[C@@H](OC(=O)C1(c3ccccc3)CCCCCC1)C2)Nc1ccccn1` [Compound K, ((R)-3-(1-phenyl-cycloheptanecarbonyloxy)-1-(pyridin-2-ylcarbamoylmethyl)-1-azonia-bicyclo[2.2.2]octane bromide], the “pA2 in the presence of Compound A” value (guinea pig trachea [3]) is reported as 9.9±0.15 and the pA2 value (guinea pig trachea [3]) is reported as 9.9±0.10.
In the case of `C[N+]1(C)[C@@H]2C[C@@H](OC(=O)C(O)(c3cccs3)c3cccs3)C[C@H]1[C@@H]1O[C@@H]12` [Compound M, (1R,2R,4S,5S,7S)-7-{[hydroxy(dithiophen-2-yl)acetyl]oxy}-9,9-dimethy-3-oxa-9-azoniatricyclo[3.3.1.0~2,4~]nonane bromide, reference compound], the “pA2 in the presence of Compound A” value (guinea pig trachea [3]) is reported as 12.0±0.08.
Work on `CNCCOc1ccccc1C1(Nc2nccn(-c3cc(C(=O)NC4CC4)cc(F)c3C)c2=O)CC1` [preparation 1 crystalline form A, N-Cyclopropyl-3-fluoro-4-methyl-5-[3-[[1-[2-[2-(methylamino)ethoxy]phenyl]cyclopropyl]amino]-2-oxo-1(2H)-pyrazinyl]-benzamide Crystalline Form A] yielded a water uptake [4] of 0.4%.
